Consider two molecules from PMC9307952, “Lipoate protein ligase B primarily recognizes the C8-phosphopantetheine arm of its donor substrate and weakly binds the acyl carrier protein” (The Journal of Biological Chemistry, 2022).

For test [1], the target named is MmLipT2 (mice LipT2) (Mus musculus, UniProt Q9D009). Particulars: 75 μM C8-CoA, 25 μM GcvH, 50 mM Tris-HCl, 500 mM NaCl, pH 8.0, 37 °C.
Test [2] concerns the target E. coli LipB (EcLipB) (Escherichia coli, UniProt P60720). The settings on record: CoA:LipB 10:1 (STD, 283 K) or 8:1 (31P, 298 K), 50 mM Tris, 200 mM NaCl, pH 7.8.

Chain of E. coli LipB (EcLipB) (P60720 whole entry): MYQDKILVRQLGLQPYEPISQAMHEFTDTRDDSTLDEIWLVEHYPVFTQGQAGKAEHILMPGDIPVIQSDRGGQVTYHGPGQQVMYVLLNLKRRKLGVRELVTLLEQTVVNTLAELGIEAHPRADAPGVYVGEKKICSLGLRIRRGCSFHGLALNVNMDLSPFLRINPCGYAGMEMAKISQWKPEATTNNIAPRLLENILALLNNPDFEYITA
Chain of MmLipT2 (mice LipT2) (Q9D009 whole entry): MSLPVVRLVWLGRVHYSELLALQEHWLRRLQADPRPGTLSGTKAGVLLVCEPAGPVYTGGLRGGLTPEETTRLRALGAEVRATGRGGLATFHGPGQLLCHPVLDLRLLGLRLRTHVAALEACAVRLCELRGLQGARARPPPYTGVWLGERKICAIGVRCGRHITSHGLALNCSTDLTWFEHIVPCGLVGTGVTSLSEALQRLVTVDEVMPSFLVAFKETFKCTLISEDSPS

Turning to `CCCCCCCC(=O)SCCNC(=O)CCNC(=O)[C@H](O)C(C)(C)COP(=O)(O)OP(=O)(O)OC[C@H]1O[C@@H](n2cnc3c(N)ncnc32)[C@H](O)[C@@H]1OP(=O)(O)O` [C8-CoA], in test [1], the “octanoyl transfer to E. coli GcvH, SDS-PAGE band shift and HPLC” value is “MmLipT2 also successfully converted E. coli GcvH using C8-CoA as a donor substrate”.

Take `CC(C)(COP(=O)(O)OP(=O)(O)OC[C@H]1O[C@@H](n2cnc3c(N)ncnc32)[C@H](O)[C@@H]1OP(=O)(O)O)[C@@H](O)C(=O)NCCC(=O)NCCS` [CoA]: the “1H STD NMR; 31P NMR” value in test [2] is reported as “suggesting binding of the adenosine ring”.
